According to patent publication US20240376051A1, “CRYSTALLINE FORM OF PYRROLE AMIDE COMPOUND, PREPARATION METHOD THEREFOR AND USE THEREOF” (SUNSHINE LAKE PHARMA CO., LTD., priority 2021, published 2024):
Where two headings read alike, the source gives them in different places.

What was measured:
[1] = Stability experiment: light test; type: physicochemical; conditions: for Appearance / Total impurity %: 25°C, white light 4990 lux; for Total impurity %: HPLC
Procedure: (§1) Test samples: crystalline form I was prepared by referring to any method of Example 2, and amorphous form was prepared by referring to Example 1.
• (3) Light test: an appropriate amount of the test sample was taken into a flat weighing bottle, spread into a thin layer with a thickness of ≤5 mm. The samples were placed in a light box (with a UV lamp) and placed under the conditions of 25° C., white light 4990 lux, and UV 1.4 W·h/m^2 for 30 days. The samples were taken for testing on the 5th, 10th, and 30th day. The color change of the samples was observed. The purity of the samples was determined by HPLC.

[2] = Hygroscopicity experiment (dynamic moisture adsorption, DVS); type: physicochemical; conditions: for The hygroscopicity feature: Chinese Pharmacopoeia 2020 definition, 25°C±1°C, 80%±2% relative humidity; for Weight gain at 60% relative humidity/% / Weight gain at 80% relative humidity/% / Weight gain at 95% relative humidity/%: DVS, 25°C
Procedure: The hygroscopicity of the present invention was measured by a DVS INT-Std dynamic moisture and gas adsorption analyzer from Surface Measurement Systems, UK. The humidity test range: 0%-95%, air flow: 200 mL/min, temperature: 25° C., test point: every 5% increase in humidity to take a test point.
Test samples: crystalline form I prepared by referring to any method of Example 2, and amorphous form prepared by referring to Example 1.
An appropriate amount of the test sample was taken, and the hygroscopicity was tested by a dynamic moisture adsorption device. The description of the hygroscopicity feature and the definition of the hygroscopicity gain (Chinese Pharmacopoeia 2020 edition. Appendix 9103 Guidelines for drug dampness test, experimental, conditions: 25° C.±1° C. 80%±2% relative humidity) as described in Table 6 below: […]

[3] = Pharmacokinetic experiment, oral capsule in Beagle dogs; type: in vivo; conditions: 5 mg/kg; for AUClast / Cmax / Tmax: male Beagle dogs
Procedure: The crystalline form I prepared by referring to any method of Example 2 was filled into capsules, which are used for oral administration.
8-12 kg Male Beagle dogs were divided into 2 groups, and 3 in each group. Each Beagle dog was orally administered the capsule containing the test sample at a dose of 5 mg/kg, and blood was collected at time points of 0.25, 0.5, 1.0, 2.0, 4.0, 6.0, 8.0 and 24 hours. Standard curve was plotted based on concentrations of the samples in a suitable range, the concentration of the test sample in the plasma sample was measured and quantified by AB SCIEX API4000 LC-MS/MS at MRM mode. Pharmacokinetic parameters were calculated according to drug concentration-time curve using a noncompartmental method by WinNonLin 6.3 software.
A pharmacokinetic experiment of the amorphous form prepared with reference to Example 1 was carried out according to the above method, and the results are shown in Table 1.

[4] = Stability experiment: high temperature test; type: physicochemical; conditions: for Appearance / Total impurity %: 60°C±2°C; for Total impurity %: HPLC
Procedure: as §1
The following tests of test samples were carried out: • (1) High temperature test: an appropriate amount of the test sample was taken into a flat weighing bottle, spread into a thin layer with a thickness of ≤5 mm. The samples were placed at 60° C.±2° C. for 30 days. The samples were taken for testing according to the key stability inspection items on the 5th, 10th, and 30th day. The color change of the samples was observed. The purity of the samples was determined by HPLC.

[5] = Stability experiment: high humidity test; type: physicochemical; conditions: for Appearance / Total impurity %: 25°C, RH 90%±5%; for Total impurity %: HPLC
Procedure: as §1
• (2) High humidity test: an appropriate amount of the test sample was taken into a flat weighing bottle, spread into a thin layer with a thickness of ≤5 mm. The samples were placed at 25° C. and RH for 90%±5% for 30 days. The samples were taken for testing according to the key stability inspection items on the 5th, 10th, and 30th day. The color change of the samples was observed. The purity of the samples was determined by HPLC.

[6] = Stability experiment: accelerated test; type: physicochemical; conditions: for Total impurity % / Appearance: 40±2°C/75%±5% RH; for Total impurity %: HPLC; for Appearance: PE package plus aluminum foil
Procedure: as §1
• (4) Accelerated test: an appropriate amount of crystalline form I test samples in a single-layer PE package plus aluminum foil packaging was stored for 6 months under the conditions of 40±2° C./75%±5% RH. Samples were taken for testing in the 1st, 2nd, 3rd and 6th month. The color change of the samples was observed. The purity of the samples was determined by HPLC.

Cc1c(C(=O)Nc2ccc(S(C)(=O)=O)c(F)c2)cn(CCO)c1-c1ccccc1C(F)(F)F [Amorphous form, (S)-1-(2-hydroxyethyl)-4-methyl-N-(3-fluoro-4-(methylsulfonyl)phenyl)-5-(2-(trifluoromethyl)phenyl)-1H-pyrrole-3-carboxamide]
Appearance ([1]; UV 1.4 W·h/m^2, 0 day): Off-white | Total impurity % ([1]; UV 1.4 W·h/m^2, 0 day): 0.40% | Total impurity % ([1]; UV 1.4 W·h/m^2, 5 days): 0.85% | Total impurity % ([1]; UV 1.4 W·h/m^2, 10 days): 1.79% | Total impurity % ([1]; UV 1.4 W·h/m^2, 30 days): 3.47% | The hygroscopicity feature [2]: slight hygroscopicity | Weight gain at 60% relative humidity/% [2]: 1.401% | Weight gain at 80% relative humidity/% [2]: 1.826% | Weight gain at 95% relative humidity/% [2]: 2.707% | AUClast [3]: 20900 ng·h/mL | Cmax [3]: 913 ng/mL | Tmax [3]: 3.33 h | Appearance ([4]; 0 day): Off-white | Total impurity % ([4]; 0 day): 0.40% | Appearance ([4]; 5 days): Off-white | Total impurity % ([4]; 5 days): 0.46% | Appearance ([4]; 10 days): Off-white | Total impurity % ([4]; 10 days): 0.55% | Appearance ([4]; 30 days): Off-white | Total impurity % ([4]; 30 days): 1.28% | Appearance ([5]; 0 day): Off-white | Total impurity % ([5]; 0 day): 0.40% | Appearance ([5]; 5 days): Off-white | Total impurity % ([5]; 5 days): 0.47% | Appearance ([5]; 10 days): Off-white | Total impurity % ([5]; 10 days): 0.53% | Appearance ([5]; 30 days): Off-white | Total impurity % ([5]; 30 days): 0.57%

Cc1c(C(=O)Nc2ccc(S(C)(=O)=O)c(F)c2)cn(CCO)c1-c1ccccc1C(F)(F)F [Crystalline form I, (S)-1-(2-hydroxyethyl)-4-methyl-N-(3-fluoro-4-(methylsulfonyl)phenyl)-5-(2-(trifluoromethyl)phenyl)-1H-pyrrole-3-carboxamide]
Appearance ([1]; UV 1.4 W·h/m^2, 0 day): White | Total impurity % ([1]; UV 1.4 W·h/m^2, 0 day): 0.34% | Appearance ([1]; UV 1.4 W·h/m^2, 5 days): White | Total impurity % ([1]; UV 1.4 W·h/m^2, 5 days): 0.34% | Appearance ([1]; UV 1.4 W·h/m^2, 10 days): White | Total impurity % ([1]; UV 1.4 W·h/m^2, 10 days): 0.32% | Appearance ([1]; UV 1.4 W·h/m^2, 30 days): White | Total impurity % ([1]; UV 1.4 W·h/m^2, 30 days): 0.49% | change of appearance and purity ([1]; light, 30 days): no obvious changes | Total impurity % ([6]; 0 day): 0.78% | Total impurity % ([6]; 1 month): 0.72% | Total impurity % ([6]; 2 months): 0.73% | Total impurity % ([6]; 3 months): 0.73% | Total impurity % ([6]; 6 months): 0.71% | Appearance ([6]; 0 day): White | Appearance ([6]; 1 month): White | Appearance ([6]; 2 months): White | Appearance ([6]; 3 months): White | Appearance ([6]; 6 months): White | change of appearance and purity ([6]; accelerated test conditions, 6 months): do not change significantly | The hygroscopicity feature [2]: no or almost no hygroscopicity | Weight gain at 60% relative humidity/% [2]: 0.120% | Weight gain at 80% relative humidity/% [2]: 0.185% | Weight gain at 95% relative humidity/% [2]: 0.304% | exposure and blood drug concentration compared with the amorphous form ([3]; Beagle dogs): higher exposure and blood drug concentration than the amorphous form | AUClast [3]: 42300 ng·h/mL | Cmax ([3]; male, Beagle, dog, plasma, po, read-out: Cmax): 1450 ng/mL | Tmax ([3]; male, Beagle, dog, plasma, po, read-out: Tmax): 4 h | Appearance ([4]; 0 day): White | Total impurity % ([4]; 0 day): 0.34% | Appearance ([4]; 5 days): White | Total impurity % ([4]; 5 days): 0.36% | Appearance ([4]; 10 days): White | Total impurity % ([4]; 10 days): 0.34% | Appearance ([4]; 30 days): White | Total impurity % ([4]; 30 days): 0.34% | change of appearance and purity ([4]; high temperature (60°C), 30 days): no obvious changes | Appearance ([5]; 0 day): White | Total impurity % ([5]; 0 day): 0.34% | Appearance ([5]; 5 days): White | Total impurity % ([5]; 5 days): 0.35% | Appearance ([5]; 10 days): White | Total impurity % ([5]; 10 days): 0.36% | Appearance ([5]; 30 days): White | Total impurity % ([5]; 30 days): 0.34% | change of appearance and purity ([5]; high humidity (25°C, RH 90%±5%), 30 days): no obvious changes
